Like-named read-outs stand apart in the source and are kept apart here.
Legend:
Sphaerotheca fuliginea = experiment: Example L: in vivo test on Sphaerotheca fuliginea (powdery mildew on cucumber/protective); details: Podosphaera fuliginea, 168 h, cucumber, protective, assessment 7 days after inoculation, read-out: % Wirkungsgrad
Description: Solvent: 49 parts by weight N,N-dimethylformamide Emulsifier: 1 part by weight alkylaryl polyglycol ethers For the preparation of a suitable active substance preparation, 1 part by weight of active substance is mixed with the stated quantities of solvent and emulsifier and the concentrate is diluted to the desired concentration with water. For the testing for protective activity, young cucumber plants are sprayed with the active substance preparation at the stated application dosage. One day after the treatment, the plants are inoculated with a spore suspension of Sphaerotheca fuliginea. Next, the plants are placed in a greenhouse at 70% relative atmospheric humidity and a temperature of 23° C. 7 days after the inoculation, the assessment takes place.

Alternaria solani = experiment: Example M: in vivo test on Alternaria solani (leaf blotch disease/tomato/protective); details: 168 h, tomato, protective, 500 ppm active substance, assessed 7 days after inoculation, read-out: % Wirkungsgrad (activity level)
Outline: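 Alternaria solani infection on tomato scored 7 days post-inoculation. Before inoculation, young plants received a protective spray at the stated application dose; formulation was compound mixed with N,N-dimethylformamide and emulsifier, water-diluted.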

physchem = details: LogPA
Fusarium graminearum = experiment: microbe, parasite or virus in culture; format: cell-based
[1] = 72 h, read-out: % Inhibition des Pilzwachstums bei 50 μM
[2] = 168 h, read-out: % Inhibition der DON/AcDON produktion bei 50 μM

Compound | pest or weed control at 500 ppm (Sphaerotheca fuliginea) [%] | pest or weed control at 500 ppm (Alternaria solani) [%] | chromatographic logP (physchem) | inhibition at 50 µM (Fusarium graminearum; [1]) [%] | inhibition at 50 µM (Fusarium graminearum; [2]) [%]
O=C(CC1CC1)Nc1cc(-c2cn(C3CC3)nc2-c2ccc(F)cc2)ccn1 [Compound 323] | 86 | 95 | 2.48 |  | 
CCOCCn1cc(-c2ccnc(NC(=O)CC)c2)c(-c2ccc(F)cc2)n1 [Compound 326] | 94 | 95 | 2.01 | 107 | 100
CCOCCn1cc(-c2ccnc(NC(=O)C(C)C)c2)c(-c2ccc(F)cc2)n1 [Compound 328] | 100 | 95 | 2.32 | 101 | 100
CCOCCn1cc(-c2ccnc(NC(=O)CC3CC3)c2)c(-c2ccc(F)cc2)n1 [Compound 329] | 94 | 95 | 2.48 | 104 | 100
CCn1cc(-c2ccnc(NC(=O)[C@@H]3C[C@H]3c3ccccc3)c2)c(-c2ccc(F)cc2)n1 [Compound 337] | 88 | 95 | 3.06 |  | 
CCn1cc(-c2ccnc(NC(=O)CC3CCCC3)c2)c(-c2ccc(F)cc2)n1 [Compound 338] | 91 | 80 | 3.87 |  | 
CCn1cc(-c2ccnc(NC(=O)CC(C)C)c2)c(-c2ccc(F)cc2)n1 [Compound 339] | 95 | 95 | 3.47 |  | 
CCC(C)C(=O)Nc1cc(-c2cn(CC)nc2-c2ccc(F)cc2)ccn1 (stereo not drawn) [Compound 340] | 95 | 95 | 2.42 |  | 
CCn1cc(-c2ccnc(NC(=O)C3CC3C)c2)c(-c2ccc(F)cc2)n1 (stereo not drawn) [Compound 341] | 100 | 95 | 2.16 |  | 
CCn1cc(-c2ccnc(NC(C)=O)c2)c(-c2ccc(F)cc2)n1 [Compound 342] | 94 | 95 | 1.57 |  | 
CC(C)CC(=O)Nc1cc(-c2cn(C)nc2-c2ccc(F)cc2)ccn1 [Compound 347] | 95 | 95 | 2.12 |  | 
CCC(C)C(=O)Nc1cc(-c2cn(C)nc2-c2ccc(F)cc2)ccn1 (stereo not drawn) [Compound 348] | 95 | 95 | 2.14 |  | 
Cn1cc(-c2ccnc(NC(=O)C3CCC3)c2)c(-c2ccc(F)cc2)n1 [Compound 349] | 95 | 80 | 1.93 |  | 
CC(=O)Nc1cc(-c2cn(C)nc2-c2ccc(F)cc2)ccn1 [Compound 350] | 94 | 95 | 1.32 |  | 
CCn1cc(-c2ccnc(NC(=O)C(N)=O)c2)c(-c2ccc(F)cc2)n1 [Compound 351] | 80 | 95 | 1.99 |  | 
CCn1cc(-c2ccnc(NC(=O)[C@H](C)O)c2)c(-c2ccc(F)cc2)n1 [Compound 352] | 73 | 95 | 1.83 |  | 
CC(C)n1cc(-c2ccnc(N)n2)c(-c2ccc(F)cc2)n1 [Compound 366] | 94 | 80 | 1.54 |  | 
Cc1c(-c2ccncc2)c(-c2ccc(F)cc2)nn1CC(F)F [Compound 367] | 84 | 95 | 1.49 |  | 
Cc1c(-c2ccncc2)c(-c2ccc(F)cc2)nn1CC(C)C [Compound 368] | 94 | 95 | 2.07 |  | 
CC(C)n1cc(-c2ccnc(NCc3ccccc3)n2)c(-c2ccc(F)cc2)n1 [Compound 369] | 88 | 90 | 3.31 |  | 
CC(C)Nc1nccc(-c2cn(C(C)C)nc2-c2ccc(F)cc2)n1 [Compound 371] | 94 | 95 | 2.92 |  | 

Reference: patent US20110183978A1, “Phenylpyri(mi)dinylazoles” (Bayer CropScience AG, priority 2009, published 2011)
